Our source for the XC50 values is ChEMBL document CHEMBL1157539, “Thousands of chemical starting points for antimalarial lead identification” (Nature, 2010).

In this experiment the test system is Plasmodium falciparum. Description: GSK_TCMDC: Inhibition of Plasmodium falciparum 3D7 in whole erythrocytes, using parasite LDH activity as an index of growth. The class given is functional, organism-based.

On to `CN(C)C(CNC(=O)c1cc(-c2ccncc2)c(-c2cc3ccccc3[nH]2)o1)c1ccccc1` (stereo not drawn), for which, where the note is “Plasmodium falciparum, 3D7”, the XC50 came out at 841 nM.
`CN1CCN(c2nc(NCCc3ccc(O)cc3)nc(NCc3ccccc3-c3ccc(C(F)(F)F)cc3)n2)CC1` showed an XC50 (Plasmodium falciparum, 3D7) of 971 nM.
Still for that read-out and setting: to `CCOc1cc(O)c(-c2nc(N)ncc2-c2ccc3c(c2)OCCO3)cc1CC` belongs 729 nM; to `CC(C)N1CCN(C(=O)c2ccc(CN(C)CCCN3CCN(c4cccc(Cl)c4Cl)CC3)s2)CC1`, 994 nM.
For the compound `CNC(=O)c1ccccc1Nc1nc(Nc2ccc(C(=O)O)cc2)ncc1Cl`, the XC50 (Plasmodium falciparum, 3D7) worked out at 950 nM.
On the same count and under the same terms, the figure for `O=C(CCN1C(=O)c2ccccc2C1=O)N1CCN(CC=Cc2ccccc2)CC1` is 541 nM; for `CC[C@H]1CN2CC[C@@H]1C[C@@H]2[C@@H](O)c1cc(-c2ccc(F)cc2)nc2ccc(OC)cc12` it is 114 nM.
As for `CCN(CC)CCN(Cc1ccc(-c2ccc(Cl)cc2)cc1)C(=O)Cn1c(CCc2cccc(F)c2F)nc(=O)c2ccccc21`, the XC50 (Plasmodium falciparum, 3D7) came to 769 nM.
For the setting “Plasmodium falciparum, 3D7”, `N#Cc1cccc(C(=O)NC2CCN(CCCCCNC(=O)/C=C/c3ccc(Cl)c(Cl)c3)CC2)c1` showed an XC50 of 876 nM.
Turning to `CN1CCC(Oc2cc(NC(=O)Nc3ccc(-c4ccncc4)c(C(F)(F)F)c3)ccc2Cl)CC1`, the XC50 (Plasmodium falciparum, 3D7) came out at 780 nM.
Still for that read-out and setting: to `O=C(/C=C/c1ccc(Cl)cc1)Nc1ccc2nc(CN3CCCC3)ccc2c1` belongs 82.1 nM; to `Cn1c(NC(=O)C2CCCN(C(=O)c3ccc(O)c(-c4ccc(Cl)c(Cl)c4)c3)C2)nc2ccccc21` (stereo not drawn), 751 nM.
The same measure, in the same setting: the figure for `O=S(=O)(NCCN1CCCC1)c1ccc(-c2ccc(CNCc3ccc(F)cc3)cc2)cc1` is 794 nM; for `COc1cccc2sc(N3CCN(C(=O)c4ccc([N+](=O)[O-])o4)CC3)nc12` it is 869 nM; for `CC1(C)NC(N)=NC(=N)N1OCCc1ccccc1` it is 3.2 nM.
The same measure, in the same setting: to `COc1ccc(NC(=O)Nc2cc(C)nc3cccnc23)cc1Cn1ccnc1` belongs 736 nM.
With `Cc1c[nH]c(-c2cccc(C(=O)NC3CCC(CCN4CCc5ccc(C#N)cc5CC4)CC3)c2)n1` (stereo not drawn), the XC50 (Plasmodium falciparum, 3D7) is 301 nM.
As to `COc1ccc2nccc(N3CCC(NCCNCc4ccc5c(n4)NC(=O)CO5)C3)c2n1` (stereo not drawn), where the note is “Plasmodium falciparum, 3D7”, the XC50 stood at 862 nM.
Where the note is “Plasmodium falciparum, 3D7”, `CCn1cnc2c(N3CCCS3(=O)=O)cc(C(=O)N[C@@H](Cc3ccccc3)[C@H](O)CNC(C)(C)c3cccc(C(F)(F)F)c3)cc21` gave an XC50 of 227 nM.
In turn, `Oc1ccc(CCNCCCCCCNCCc2ccc(Cl)cc2)c(Cl)c1O` displayed an XC50 (Plasmodium falciparum, 3D7) of 775 nM.
On the same count and under the same terms, the figure for `OCC1CCN(Cc2ccc(-c3cccc(-c4nc5cc(F)ccc5[nH]4)c3)cc2)CC1` is 910 nM.
In the case of `CC(C)Cc1c(O)nc(SCCN2CCOCC2)[nH]c1=O`, the XC50 (Plasmodium falciparum, 3D7) worked out at 1260 nM.
In turn, `CN(Cc1cccc(F)c1)C1CCN(c2cc(NC(=O)c3ccc(F)cc3)ccn2)C1` (stereo not drawn) registered an XC50 (Plasmodium falciparum, 3D7) of 1230 nM.
The same measure, in the same setting: the figure for `CCCCN1CCN(CCCCNc2c3ccccc3nc3ccccc23)CC1` is 167 nM.
Regarding `COc1ccc2nc(C)cc(Nc3ccc(Oc4ccc(Cl)cc4)c(Cl)c3)c2c1`, the XC50 (Plasmodium falciparum, 3D7) stood at 191 nM.
Still for that read-out and setting: to `CC(C)NCc1cccc(-c2ccc(NC(=O)c3ccc(F)cc3)cc2)c1` belongs 850 nM; to `Cc1cccc2nc(-c3cccc(-c4cccc(NC(=O)c5c[nH]cn5)c4)c3)[nH]c12`, 258 nM.
Where the note is “Plasmodium falciparum, 3D7”, `Cc1sc2ncnc(Sc3nc4ccccc4[nH]3)c2c1C` came in with an XC50 of 255 nM.
Where the note is “Plasmodium falciparum, 3D7”, `COc1ccc(N2CCN(CCCCNC(=O)c3ccc(NC(=O)c4cccc(Cl)c4)cc3)CC2)c(OC)c1` displayed an XC50 of 911 nM.
For `CCCC1N=C(N)N=C(N)N1c1ccc(Cl)cc1` (stereo not drawn), the XC50 (Plasmodium falciparum, 3D7) amounted to 46.7 nM.
`Nc1ncc(-c2ccc(F)cc2)c2ccc(-c3cccc(F)c3)cc12`: where the note is “Plasmodium falciparum, 3D7”, the XC50 was found to be 227 nM.
Still for that read-out and setting: to `Cc1c(C)c2c(c(C)c1O)CC[C@](C)(C(=O)N1CCC(CN3CCC(c4c[nH]c5ccccc45)CC3)CC1)O2` belongs 718 nM; to `Cc1ccccc1C1CCN(C2CCC(NC(=O)c3ccc(-c4ccccn4)s3)CC2)CC1` (stereo not drawn), 1180 nM.
Still for that read-out and setting: to `O=C(N[C@@H](CC1CCCCC1)C(=O)NC1CC1)c1ccc(O)c(-c2cccc(C(F)(F)F)c2)c1` belongs 773 nM.
For the setting “Plasmodium falciparum, 3D7”, `Cc1[nH]c2c(C)cc(NS(C)(=O)=O)cc2c1C1CCN(CC2CCN(C(=O)/C=C/c3ccc(Cl)c(Cl)c3)CC2)CC1` registered an XC50 of 241 nM.
On the same count and under the same terms, the figure for `Cc1cc(=NN=Cc2ccccn2)c2cc(C(F)(F)F)ccc2[nH]1` is 621 nM.
The compound `CC1CN(Cc2cccc(F)c2)CCN1c1ccc(NC(=O)c2cccs2)cc1` (stereo not drawn) registered an XC50 (Plasmodium falciparum, 3D7) of 448 nM.
For `COc1ccc(-c2cc(-c3nc4cc(CN)ccc4[nH]3)c(=O)n(C)c2)cc1OC`, the XC50 (Plasmodium falciparum, 3D7) came out at 1400 nM.
Still for that read-out and setting: the figure for `O=C(Nc1ccc(Cn2ncc(N3CCCNCC3)c(Cl)c2=O)cc1)Nc1ccc(OCc2ccccc2)cc1` is 822 nM; for `COc1ccc(-c2cccc(NC(=O)c3ccc(Cl)cc3)c2)cc1CN(C)CCN(C)C` it is 776 nM; for `COc1cccc(NC(=O)N2CCOC(CCN3CCC4(CCc5ccccc54)CC3)(c3ccc(Cl)c(Cl)c3)C2)c1` (stereo not drawn) it is 1010 nM.
The same measure, in the same setting: the figure for `COc1ccc2ncc(F)c(CCN3CC(O)C(CNCc4ccc5c(n4)NC(=O)CS5)C3)c2c1` (stereo not drawn) is 784 nM.
Take `O=C(NCCCCN1CC=C(c2ccc3c(c2OCc2ccccc2)CCCC3)CC1)c1ccc(-c2ccc(C(F)(F)F)cc2)cc1`: for the setting “Plasmodium falciparum, 3D7”, the XC50 came out at 296 nM.
Still for that read-out and setting: to `COC(=O)Cc1ccc(N)c2ccccc12` belongs 702 nM; to `C=CCOC(=O)N1CCC(CNCc2cccc(-c3cccc(-c4nc5cc(F)ccc5[nH]4)c3)c2)C1` (stereo not drawn), 207 nM.
On the same count and under the same terms, the figure for `Cc1ccc(F)c(OCC2CCCN(c3ccc(C(=O)NC4CC4)cn3)C2)c1` (stereo not drawn) is 773 nM; for `Cc1cccc2nc(-c3cccc(-c4ccc(C(=O)NCCc5ccc(O)c(=O)[nH]5)cc4)c3)[nH]c12` it is 1190 nM; for `C/C=C/C=C/C1=NCCc2cc(OCCC)ccc21` it is 914 nM.
`CC(Cc1ccc(NC(=O)[C@@H](C)NCCc2cccc(Cl)c2)cc1)NCCc1cccc(Cl)c1` (stereo partly drawn) gave an XC50 (Plasmodium falciparum, 3D7) of 778 nM.
`CC(Nc1ccnc2cc(Cl)ccc12)c1ccc(S(N)(=O)=O)cc1` (stereo not drawn) came in with an XC50 (Plasmodium falciparum, 3D7) of 933 nM.
Where the note is “Plasmodium falciparum, 3D7”, `Cc1cc(OCC2CCN(c3ccc(C(=O)NC4CC4)cn3)CC2)ccc1F` yielded an XC50 of 868 nM.
`CC[C@H]1CN2CC[C@H]1C[C@H]2[C@H](O)c1cc(-c2cccc(Cl)c2)nc2ccc(OC)cc12` registered an XC50 (Plasmodium falciparum, 3D7) of 168 nM.
Where the note is “Plasmodium falciparum, 3D7”, `COc1ccc2nccc([C@@H](O)CN3CCC(NCCOc4ccncc4)CC3)c2c1` returned an XC50 of 690 nM.
The same measure, in the same setting: to `COc1ccc2nccc([C@@H](O)CN3CCC(NCc4cc5oc(=O)n(C)c5cc4F)CC3)c2c1` belongs 661 nM.
In the case of `O=C(Nc1cccc(-c2cccc(-c3nc4ccccc4[nH]3)c2)c1)NC1CC1c1ccccc1` (stereo not drawn), the XC50 came out at 898 nM. For the setting “Plasmodium falciparum, 3D7”, this compound yielded an XC50 of 1070 nM.
Where the note is “Plasmodium falciparum, 3D7”, `CN1CCC(c2csc3ccc(NC(=O)Nc4ccc(-c5ccncc5)c5ccccc45)cc23)CC1` registered an XC50 of 1020 nM.
Under “Plasmodium falciparum, 3D7”, `COc1ccc(C(O)CNC(C)CCc2ccc(F)cc2)cc1C(F)(F)F` (stereo not drawn) displayed an XC50 of 747 nM.
The compound `N#Cc1ccc2[nH]c(-c3cc(-c4cccc(F)c4)cnc3N)nc2c1` displayed an XC50 (Plasmodium falciparum, 3D7) of 193 nM.
Still for that read-out and setting: to `Cc1cccc2nc(-c3ccc(-c4ccc(NC(=O)Nc5ccsc5)cc4)cc3)[nH]c12` belongs 171 nM; to `Cc1c(C(=O)NCc2ccncc2)sc2nc(-c3cccc([N+](=O)[O-])c3)cn12`, 913 nM; to `O=C(Nc1cccc(C(F)(F)F)c1)Nc1ccc2nonc2c1`, 849 nM.
The same measure, in the same setting: to `N#CCc1ccc(Nc2nccc(Nc3ccc(Oc4ccccc4)cc3)n2)cc1` belongs 805 nM.
